We go through two compounds from PubChem BioAssay AID720604 (Broad Institute, 2013).

For this assay, the system named is HUVEC viability, CellTiter-Glo ATP luminescence, 8-48 h. The assay can be described thus: HUVEC endothelial cell viability loss, dose response, cytotoxicity control for HRAS target identification, CellTiter-Glo ATP luminescence, 8/24/48 h, dry powder (AID 720604). For orientation: ATP-based viability assays read luminescence as a measure of living cells.

The structures appear in SMILES notation. Inconclusive results are not listed.

As usually defined, the AC50 is the midpoint of the concentration-response curve, whichever way the signal moves. A higher AC50 goes with activity only at high concentration. Compound `COc1ccc(N(C(=O)CCl)C(C(=O)NCCc2ccccc2)c2cccs2)cc1Cl` (stereo not given) had a half-maximal activity concentration (AC50) (measured here: 8 h treatment) of 25.4 µM, an AC50 (measured here: 24 h treatment) of 5.53 µM and an AC50 (measured here: 48 h treatment) of 5.1 µM.

Turning to `CC(C)(C)OC(=O)NCCOCCOCCOc1ccc(N(C(=O)CCl)C(C(=O)NCCc2ccccc2)c2cccs2)cc1Cl` (stereo not given), the AC50 is 7.15 µM (measured here: 24 h treatment) and 7.2 µM (measured here: 48 h treatment).
